The test system of one assay is measles virus. Description: microbe, parasite or virus in culture. As to conditions: Measles morbillivirus; for MIC50: 24 h; for IC50: HEK-293T, read-out: IC50 on the measles virus.
Another assay addresses T1, recombinant human DHODH (Homo sapiens, UniProt Q02127).
T1 construct: N-terminally truncated (first 29 amino acids) human DHODH; made in house; host or cells: E. coli BL21(DE3)/pDIA17
Description: recombinant DHODH enzymatic assay (DCIP reduction). The assay is classed as biochemical. As to conditions: 25°C, DCIP reduction at 600 nm.

In brackets after ≈: the same amount, converted by molar mass. Bounds are passed on as bounds.

The values below come from EP2929883A1, “Pyrazole derivatives as dihydroorotate dehydrogenase (DHODH) inhibitors” (INSTITUT PASTEUR, priority 2014, dated 2015).

T1 sequence (Q02127 29-395): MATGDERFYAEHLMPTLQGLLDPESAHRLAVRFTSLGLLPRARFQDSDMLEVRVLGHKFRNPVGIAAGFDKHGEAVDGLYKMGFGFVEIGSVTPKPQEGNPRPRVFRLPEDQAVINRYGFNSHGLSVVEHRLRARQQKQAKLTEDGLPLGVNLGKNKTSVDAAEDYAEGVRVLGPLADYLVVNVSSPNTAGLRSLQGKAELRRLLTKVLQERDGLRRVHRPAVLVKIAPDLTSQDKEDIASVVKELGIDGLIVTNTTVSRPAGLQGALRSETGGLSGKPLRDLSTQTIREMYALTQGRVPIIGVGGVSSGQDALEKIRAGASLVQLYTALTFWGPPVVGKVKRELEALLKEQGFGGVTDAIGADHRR
Description for recombinant human DHODH: Enzymatic assay DHODH activity was determined at 25°C following the reduction of DCIP at 600 nm (ε = 18,800 M^-1 cm^-1) on a spectrophotometer. […] The reaction medium used for this contained 50 mM Tris-HCl pH 8.0, 0.1% Triton X-100, 0.1 mM L-DHO, 0.025 mM CoQ1 and 0.06 mM DCIP. The reaction was started by addition of the enzyme.

For `CCc1cnc(-n2nc(OC(C)C)c(Oc3c(F)cccc3F)c2C)nc1` [example 8, 2-(4-(2,6-difluorophenoxy)-3-isopropoxy-5-methyl-1H-pyrazol-1-yl)-5-ethylpyrimidine], in the assay with measles virus, the MIC50 was 0.0005 to 0.05 µM (≈ 0.000187 to 0.0187 µg/mL) and the IC50 came to 0.66 nM. For the same molecule, the 50% inhibitory concentration (IC50) on recombinant human DHODH stood at 13 ± 1 nM. The like results for `Cc1c(Cc2ccccc2F)c(OC(C)C)nn1-c1ncc(C2CC2)cn1` [example 10, 5-cyclopropyl-2-(4-(2-fluorobenzyl)-3-isopropoxy-5-methyl-1H-pyrazol-1-yl)pyrimidine] were, in that order, 0.0005 to 0.05 µM (≈ 0.000183 to 0.0183 µg/mL), 1.1 nM and 13 ± 2 nM.

Take `CC(C)Oc1nn(-c2ncc(C3CC3)cn2)cc1Oc1ccccc1F` [example 67, 5-cyclopropyl-2-(4-(2-fluorophenoxy)-3-isopropoxy-1H-pyrazol-1-yl)pyrimidine]: in the assay on measles virus, the MIC50 lay within 0.0005 to 0.05 µM (≈ 0.000177 to 0.0177 µg/mL) and the IC50 stood at 15 nM. Moreover, the IC50 on recombinant human DHODH was 48 ± 7 nM. For `c1ccc(-c2ccn(-c3ncc(C4CC4)cn3)n2)cc1` [example 122, 5-cyclopropyl-2-(3-phenyl-1H-pyrazol-1-yl)pyrimidine], the MIC50 in the assay on measles virus was 0.5 to 5 µM (≈ 0.131 to 1.31 µg/mL). Moreover, the figures for the IC50 in the assay with measles virus and on recombinant human DHODH were 3800 nM and 22800 ± 2800 nM, respectively. Taken in the same sequence, the figures for `Cc1c(C(O)c2ccccc2)c(OC(C)C)nn1-c1ncc(C2CC2)cn1` (stereo not drawn) [example 176, (1-(5-cyclopropylpyrimidin-2-yl)-3-isopropoxy-5-methyl-1H-pyrazol-4-yl)(phenyl)methanol] were 0.0005 to 0.05 µM (≈ 0.000182 to 0.0182 µg/mL), 1.4 nM and 16 ± 3 nM. For the molecule `Cc1c(Cc2ccccc2)c(OC(C)C)nn1-c1ccc(C2CC2)cn1` [example 20, 2-(4-benzyl-3-isopropoxy-5-methyl-1H-pyrazol-1-yl)-5-cyclopropylpyridine], in the assay on measles virus, the MIC50 fell in the range of 0.0005 to 0.05 µM (≈ 0.000174 to 0.0174 µg/mL) and the IC50 is 46 nM. Moreover, the IC50 at recombinant human DHODH was 130 ± 5 nM. In the assay on measles virus, `CCOc1nn(-c2ncc(CC)cn2)c(C)c1Oc1ccccc1Br` [example 81, 2-(4-(2-bromophenoxy)-3-ethoxy-5-methyl-1H-pyrazol-1-yl)-5-ethylpyrimidine] returned an MIC50 of 0.05 to 0.5 µM (≈ 0.0202 to 0.202 µg/mL). In addition, the IC50 with measles virus was 124 nM; on recombinant human DHODH, 1150 ± 170 nM. In turn, `CC(C)Oc1nn(-c2ccc(C3CC3)cn2)cc1Oc1ccccc1F` [example 65, 5-cyclopropyl-2-(4-(2-fluorophenoxy)-3-isopropoxy-1H-pyrazol-1-yl)pyridine] returned an MIC50 in the assay with measles virus of 0.0005 to 0.05 µM (≈ 0.000177 to 0.0177 µg/mL). `Cc1c(Cc2ccccc2)c(OC(C)C)nn1-c1ncc(C2CC2)cn1` [example 21, 2-(4-benzyl-3-isopropoxy-5-methyl-1H-pyrazol-1-yl)-5-cyclopropylpyrimidine]: the MIC50 against measles virus was 0.0005 to 0.05 µM (≈ 0.000174 to 0.0174 µg/mL). Turning to `CCc1cnc(-n2nc(OC(C)C)c(Cc3ccccc3OC)c2C)nc1` [example 101, 5-ethyl-2-(3-isopropoxy-4-(2-methoxybenzyl)-5-methyl-1H-pyrazol-1-yl)pyrimidine], in the assay with measles virus, the MIC50 lay in the range of 0.0005 to 0.05 µM (≈ 0.000183 to 0.0183 µg/mL).

In the assay on measles virus, `Cc1c(Oc2cccc(F)c2F)c(OC(C)C)nn1-c1ccc(C2CC2)cn1` [example 16, 5-cyclopropyl-2-(4-(2,3-difluorophenoxy)-3-isopropoxy-5-methyl-1H-pyrazol-1-yl)pyridine] returned an MIC50 of 0.0005 to 0.05 µM (≈ 0.000193 to 0.0193 µg/mL).

In the assay on measles virus, `CCc1ccc(-n2nc(OC(C)C)c(Oc3c(F)cccc3F)c2C)cn1` [example 129, 5-(4-(2,6-difluorophenoxy)-3-isopropoxy-5-methyl-1H-pyrazol-1-yl)-2-ethylpyridine] yielded an MIC50 of 0.0005 to 0.05 µM (≈ 0.000187 to 0.0187 µg/mL).

In turn, `CCCCc1c(OCC)nn(-c2ncc(CC)cn2)c1C` [example 114, 2-(4-butyl-3-ethoxy-5-methyl-1H-pyrazol-1-yl)-5-ethylpyrimidine] had an MIC50 with measles virus of 0.5 to 5 µM (≈ 0.144 to 1.44 µg/mL). In the case of `Cc1c(-c2ccc(-c3ccccc3F)cc2)nc2ccc(F)cc2c1C(=O)O` [brequinar, reference compound], the IC50 with measles virus was found to be 40 nM. For the molecule `CCCc1cnc(-n2nc(OC(C)C)c(Oc3c(F)cccc3F)c2C)c(F)c1` [example 190A, 2-(4-(2,6-difluorophenoxy)-3-isopropoxy-5-methyl-1H-pyrazol-1-yl)-3-fluoro-5-propylpyridine], the MIC50 in the assay on measles virus was 0.05 to 0.5 µM (≈ 0.0203 to 0.203 µg/mL). Still for that read-out and setting: as for `CC(C)Oc1nn(-c2ccc(C3CC3)cn2)cc1Oc1ccccc1` [example 71, 5-cyclopropyl-2-(3-isopropoxy-4-phenoxy-1H-pyrazol-1-yl)pyridine], the figure is 0.05 to 0.5 µM (≈ 0.0168 to 0.168 µg/mL); as for `Cc1c(Oc2c(F)cccc2F)c(OC(C)C)nn1-c1ncc(Br)cc1F` [example 86, 5-bromo-2-(4-(2,6-difluorophenoxy)-3-isopropoxy-5-methyl-1H-pyrazol-1-yl)-3-fluoropyridine], 0.05 to 0.5 µM (≈ 0.0221 to 0.221 µg/mL); as for `CCOc1nn(-c2ncc(C)cn2)c(C)c1Cc1ccccc1` [example 171, 2-(4-benzyl-3-ethoxy-5-methyl-1H-pyrazol-1-yl)-5-methylpyrimidine], 0.0005 to 0.05 µM (≈ 0.000154 to 0.0154 µg/mL). Same read-out and setting: as for `CCOc1nn(-c2ccccn2)c(C)c1-c1ccc(C(F)(F)F)cc1` [example 159, 2-(3-ethoxy-5-methyl-4-(4-(trifluoromethyl)phenyl)-1H-pyrazol-1-yl)pyridine], the figure is above 5 µM; as for `COc1cccc(Cc2cc(OC)nn2-c2ccccn2)c1` [example 148, 2-(3-methoxy-5-(3-methoxybenzyl)-1H-pyrazol-1-yl)pyridine], above 5 µM; as for `CCOc1ccc(-n2nc(OC(C)C)c(Oc3c(F)cccc3F)c2C)nn1` [example 174A, 3-(4-(2,6-difluorophenoxy)-3-isopropoxy-5-methyl-1H-pyrazol-1-yl)-6-ethoxypyridazine], 0.05 to 0.5 µM (≈ 0.0195 to 0.195 µg/mL).

On to `CCCCCc1cnc(-n2nc(OCC)c(Cc3ccccc3)c2C)nc1` [example 28, 2-(4-benzyl-3-ethoxy-5-methyl-1H-pyrazol-1-yl)-5-pentylpyrimidine], for which the MIC50 in the assay on measles virus is above 5 µM. As to `CCOc1nn(-c2ncc(Br)cc2F)c(C)c1Cc1ccccc1` [example 40, 2-(4-benzyl-3-ethoxy-5-methyl-1H-pyrazol-1-yl)-5-bromo-3-fluoropyridine], the MIC50 in the assay with measles virus fell in the range of 0.5 to 5 µM (≈ 0.195 to 1.95 µg/mL). As for `CCOc1nn(-c2ccc(C3CC3)cn2)c(C)c1Cc1ccccc1` [example 172, 2-(4-benzyl-3-ethoxy-5-methyl-1H-pyrazol-1-yl)-5-cyclopropylpyridine], in the assay with measles virus, the MIC50 is 0.05 to 0.5 µM (≈ 0.0167 to 0.167 µg/mL). The same measure, in the same setting: under `CCOc1nn(-c2ncc(CC)cn2)c(C)c1Oc1ccccc1Cl` [example 78, 2-(4-(2-chlorophenoxy)-3-ethoxy-5-methyl-1H-pyrazol-1-yl)-5-ethylpyrimidine] stands 0.05 to 0.5 µM (≈ 0.0179 to 0.179 µg/mL).

In the assay on measles virus, `CCOc1nn(-c2ncc(CC)cn2)c(C)c1Sc1ccccc1` [example 152, 2-(3-ethoxy-5-methyl-4-(phenylthio)-1H-pyrazol-1-yl)-5-ethylpyrimidine] registered an MIC50 of 0.05 to 0.5 µM (≈ 0.017 to 0.17 µg/mL). Same read-out and setting: as for `CCOc1nn(-c2ncc(CC)cn2)c(C)c1Oc1ccc(C(F)(F)F)cc1` [example 83, 2-(3-ethoxy-5-methyl-4-(4-(trifluoromethyl)phenoxy)-1H-pyrazol-1-yl)-5-ethylpyrimidine], the figure is above 5 µM.

In turn, `CCOc1nn(-c2cc(C)ccn2)c(C)c1Cc1ccccc1` [example 32, 2-(4-benzyl-3-ethoxy-5-methyl-1H-pyrazol-1-yl)-4-methylpyridine] registered an MIC50 with measles virus of 0.5 to 5 µM (≈ 0.154 to 1.54 µg/mL).

With `CCOc1nn(-c2ncc(OC)cn2)c(C)c1Cc1ccccc1` [example 112, 2-(4-benzyl-3-ethoxy-5-methyl-1H-pyrazol-1-yl)-5-methoxypyrimidine], the MIC50 in the assay with measles virus was 0.5 to 5 µM (≈ 0.162 to 1.62 µg/mL). Same read-out and setting: as for `Cc1c(Oc2cccc(F)c2)c(OC(C)C)nn1-c1ccc(C2CC2)cn1` [example 97, 5-cyclopropyl-2-(4-(3-fluorophenoxy)-3-isopropoxy-5-methyl-1H-pyrazol-1-yl)pyridine], the figure is 0.05 to 0.5 µM (≈ 0.0184 to 0.184 µg/mL).

Regarding `CCOc1nn(-c2ncc(C3CC3)cn2)c(C)c1Cc1ccccc1` [example 29, 2-(4-benzyl-3-ethoxy-5-methyl-1H-pyrazol-1-yl)-5-cyclopropylpyrimidine], the MIC50 against measles virus lay within 0.0005 to 0.05 µM (≈ 0.000167 to 0.0167 µg/mL). On the same count and under the same terms, under `CCOc1nn(-c2ccc(C(C)C)cn2)c(C)c1Cc1ccccc1` [example 170, 2-(4-benzyl-3-ethoxy-5-methyl-1H-pyrazol-1-yl)-5-isopropylpyridine] stands 0.5 to 5 µM (≈ 0.168 to 1.68 µg/mL). On to `CCOc1nn(-c2ccc(C)nc2)c(C)c1Cc1ccccc1` [example 124, 5-(4-benzyl-3-ethoxy-5-methyl-1H-pyrazol-1-yl)-2-methylpyridine], for which the MIC50 against measles virus lay in the range of 0.5 to 5 µM (≈ 0.154 to 1.54 µg/mL). Regarding `Cc1c(Oc2c(F)cccc2F)c(OC(C)C)nn1-c1ccc(C(C)(F)F)cn1` [example 91, 5-(1,1-difluoroethyl)-2-(4-(2,6-difluorophenoxy)-3-isopropoxy-5-methyl-1H-pyrazol-1-yl)pyridine], the MIC50 in the assay with measles virus is 0.05 to 0.5 µM (≈ 0.0205 to 0.205 µg/mL).

In turn, `Cc1c(Oc2ccc(F)cc2)c(OC(C)C)nn1-c1ccc(C2CC2)cn1` [example 98, 5-cyclopropyl-2-(4-(4-fluorophenoxy)-3-isopropoxy-5-methyl-1H-pyrazol-1-yl)pyridine] yielded an MIC50 in the assay on measles virus of 0.5 to 5 µM (≈ 0.184 to 1.84 µg/mL). With `CCOc1cc(C(=O)c2ccc(Cl)cc2)n(-c2ccccn2)n1` [example 149, (4-chlorophenyl)(3-ethoxy-1-(pyridin-2-yl)-1H-pyrazol-5-yl)methanone], the MIC50 against measles virus was above 5 µM. `Cc1ccc(-n2nc(OC(C)C)c(Oc3c(F)cccc3F)c2C)nn1` [example 12, 3-(4-(2,6-difluorophenoxy)-3-isopropoxy-5-methyl-1H-pyrazol-1-yl)-6-methylpyridazine]: the MIC50 with measles virus lay in the range of 0.0005 to 0.05 µM (≈ 0.00018 to 0.018 µg/mL). The same measure, in the same setting: as for `Cc1nn(-c2ncc(C3CC3)cn2)c(OC(C)C)c1Cc1ccccc1` [example 22, 2-(4-benzyl-5-isopropoxy-3-methyl-1H-pyrazol-1-yl)-5-cyclopropylpyrimidine], the figure is 0.05 to 0.5 µM (≈ 0.0174 to 0.174 µg/mL); as for `CCOc1nn(-c2ccc(C3CC3)cn2)c(C)c1Oc1cc(Cl)ccc1Cl` [example 95, 5-cyclopropyl-2-(4-(2,5-dichlorophenoxy)-3-ethoxy-5-methyl-1H-pyrazol-1-yl)pyridine], 0.05 to 0.5 µM (≈ 0.0202 to 0.202 µg/mL); as for `CCOc1nn(-c2ccccn2)c(C)c1Cc1cccc(Cl)c1` [example 163, 2-(4-(3-chlorobenzyl)-3-ethoxy-5-methyl-1H-pyrazol-1-yl)pyridine], above 5 µM.
